In patent US20160367578A1, “METHODS AND COMPOSITIONS FOR ERADICATING LEUKEMIC CELLS” (priority 2013, published 2016):
Like-named read-outs stand apart in the source and are kept apart here.

Tests used:
[1] = test system: human leukemic cancer stem and progenitor cells (THP1, HL60, U937); test: Colony formation assay (CFU-C) on human leukemic cell lines; assay type: cell-based
human AML cell line U937 = test: Neutrophil differentiation (CD66b+/CD14-) by FACS in U937; assay type: cell-based; details: U937, 16 hours
human APL cell line HL60 = test: HL60 viability (flow cytometry) and colony formation after CBX; assay type: cell-based; details: viability 16 hours, colony formation 7 days post exposure
gap junctions = details: 100 μM; cited from earlier work
primary MLL-AF9 cells = test: Differentiation assay, Gr-1 and Mac-1 expression in primary MLL-AF9 cells; assay type: cell-based, mouse; parameters: dose or concentration left out as unconfirmed; details: CBX for 16 hours; for differentiation of MLL-AF9 cells: Gr-1/Mac-1 expression
Experimental: Cell viability was determined by % of 7AAD-negative cells, in FACS analysis. (*p<0.01).
MLL-AF9 AML cells are undifferentiated myeloid progenitors that express both Gr-1 and Mac-1 antigens, whereas mature myeloid cells express either Gr-1 (granulocytes) or Mac-1 (macrophages).

[2] = test system: normal bone marrow mononuclear cells (BM-MNC); test: Normal bone marrow mononuclear cells in 1:1 mixture with MLL-AF9 cells after CBX; assay type: cell-based, mouse; details: CBX vs PBS
[3] = test system: freshly isolated primary non-leukemic normal human leukocytes; test: Colony formation assay (CFU-C) on normal human leukocytes; assay type: cell-based
human AML cell line HL60 = test: Neutrophil differentiation (CD66b+/CD14-) by FACS in HL60; assay type: cell-based; details: HL60, 16 hours
[4] = test system: freshly isolated primary human leukocytes; test: Neutrophil differentiation (CD66b+/CD14-) by FACS in primary human leukocytes; assay type: cell-based; details: 16 hours
[5] = test system: murine AML cells (MLL-AF9 clone A, MLL-AF9 clone B, HoxA9/Meis1 cells); test: Viability of murine AML cells in 1:1 mixtures with normal leukocytes exposed to CBX for 16 hours; assay type: cell-based, mouse
Experimental: Cells were distinguished by Cd45.1/CD45.2 expression and cell viability was determined by % of 7AAD-negative cells, in FACS analysis. (*p<0.01).
Cells were distinguished by CD45.1/CD45.2 expression and cell viability was determined by % of 7AAD-negative cells, in FACS analysis (*p<0.01).
We then asked how blockage of gap junction intercellular communication affects AML cells, without additional treatment. […] In order to exclude the possibility of clone specific effects, we have repeated the experiments with a different MLL-AF9 clone, generated independently, and also included HoxA9/Meis1 AML cells that represent a different type of AML.

[6] = test system: Mac1 in human leukemic cell lines U937, HL60 and THP1; test: Myelo-marker flow cytometry in CBX-treated human leukemic cell lines; assay type: cell-based; details: human leukemias, CBX 16 h
Source text: FIGS. 34A-34D are bar graphs quantifying myelo-markers CD11b (FIG. 34A), CD14+ (FIG. 34B), CD66b+ (FIG. 34C), and CD66+/CD14+ (FIG. 34D) in CBX-treated primary normal human leukocytes as compared to CBX-treated human leukemic cell lines U937, HL60 and THP1.

MLL-AF9 leukemia [7] = test system: MLL-AF9 leukemia; parameters: autopsy finding: dose or concentration left out as unconfirmed
[8] = test system: Mac1 (CD11b, integrin αm) in MLL-AF9 cells; test: Mac1 expression in CBX treated mice leukemic cells; assay type: cell-based, mouse; details: 7AAD-negative MLL-AF9 cells undergoing apoptosis
[9] = test system: MLL-AF9 cells (murine leukemic cancer stem cells); test: Colony formation assay (CFU-C) on MLL-AF9 cells; assay type: cell-based, mouse
MLL-AF9 leukemia [10] = test: MLL-AF9 leukemia in non-irradiated mice, intraperitoneal CBX with or w/o chemotherapy (survival, IVIS, flow cytometry); assay type: in vivo, mouse
Experimental: Chemo: cytarabine (100 mg/kg) and doxorubicin (3 mg/kg) to the subject for a period of 3 days, followed by administering cytarabine alone (100 mg/kg) to the subject for a period of 2 days.
Leukemia was induced in mice by intravenously injecting 1 million live MLL-AF9 leukemic cells (expressing GFP and luciferase) into non-irradiated recipients.
We first studied the immediate response of AML cells to induction chemotherapy in a mouse model of human MLL-AF9 leukemia. MLL-AF9 is a fusion protein, encoded by the t(9; 11)(p22; q23) translocation (Krivtsov, et al. 2006 and Sykes, et al., Cell 146, 697-708 (2011)), present in leukemic blasts derived from patients with AML and is associated with poor prognosis (Schoch, et al., Blood 102, 2395-402 (2003)). In order to generate primary MLL-AF9 leukemic cells for our experiments, we introduced the MLL-AF9 oncogene via retroviral transduction into lineage depleted bone marrow cells from B6.SJL mice, as depicted in FIG. 1A. Sorted GFP positive cells were then intravenously injected into sub-lethally irradiated C57B16 recipients and MLL-AF9 GFP-positive leukemic cells were harvested 3 months later, at a terminal stage of disease. In order to synchronize the timing of the treatment and to visualize disease progression, we transduced primary MLL-AF9 GFP-positive cells with Luciferase lentivirus. Then, we selected Luciferase expressing cells with antibiotics and transplanted 1 million double positive leukemic cells into non-irradiated recipients and monitored disease progression by whole body bioluminescence imaging (FIGS. 1A and 1B).
1 week after treatment, mice were imaged and then sacrificed to evaluate treatment outcome.

[11] = 75 mg/kg CBX in combination with chemotherapy

Question: With `CC1(C)[C@@H](OC(=O)CCC(=O)O)CC[C@]2(C)[C@H]3C(=O)C=C4[C@@H]5C[C@@](C)(C(=O)O)CC[C@]5(C)CC[C@@]4(C)[C@]3(C)CC[C@@H]12` [CBX, Carbenoxolone] as the compound, how does the “effect on human leukemic progenitors (CFU-C)” value ([1]; CBX 100 μM) read?
Answer: eradicates human leukemic progenitors

Question: What about the “effect on human leukemic cancer stem and progenitor cells (CFU-C)” value ([1]; increasing concentrations) of the same compound?
Answer: eradicates human leukemic cancer stem and progenitor cells

Question: And the “neutrophil differentiation (CD66b+/CD14−)” value (shortened to “neutrophil differentiation”) (human AML cell line U937)?
Answer: induces rapid (within 16 hours) neutrophil differentiation

Question: What about the “sensitivity of HL60” value (human APL cell line HL60) of the same compound?
Answer: sensitive

Question: And the “block of cell-cell communication” value (gap junctions)?
Answer: efficiently blocks cell-cell communication

Question: What about the cell viability (gap junctions) of the same compound?
Answer: without affecting cell viability

Question: And the “toxicity to MLL-AF9 cells” value (primary MLL-AF9 cells)?
Answer: not toxic to the cells

Question: And the “differentiation of MLL-AF9 cells” value (primary MLL-AF9 cells)?
Answer: induces their differentiation into mature granulocytes

Question: And the “differentiation of MLL-AF9 cells” value (primary MLL-AF9 cells; listed as carbenoxolone)?
Answer: promotes differentiation of AML cells into short-lived granulocytes

Question: What about the “replenishment of normal healthy cells” value [2] of the same compound?
Answer: enhances the replenishment of normal healthy cells

Question: And the “effect on normal progenitors (CFU-C)” value ([3]; CBX 100 μM)?
Answer: induces proliferation of normal progenitors

Question: What about the “effect on normal human stem and progenitor cells (CFU-C)” value ([3]; increasing concentrations) of the same compound?
Answer: inducing proliferation of normal human stem and progenitor cells

Question: And the “neutrophil differentiation” value (human AML cell line HL60)?
Answer: induces rapid (within 16 hours) neutrophil differentiation

Question: What about the “neutrophil differentiation” value [4] of the same compound?
Answer: does not induce neutrophil differentiation

Question: And the “eradication of different murine AML cells” value [5]?
Answer: selectively eradicates

Question: What about the “eradication of different murine AML cells” value ([5]; listed as Carbenoxolone) of the same compound?
Answer: selective eradication

Question: And the “eradication of different murine AML cells” value ([5]; listed as carbenoxolone)?
Answer: selectively eradicates

Question: What about the Mac1 expression [6] of the same compound?
Answer: downregulated

Question: What about the CBX-treated mice survived (MLL-AF9 leukemia [7]; 25 mg/kg CBX alone or in combination with induction chemotherapy) of the same compound?
Answer: 40%-60%

Question: What about the “survival vs PBS and chemotherapy controls” value (MLL-AF9 leukemia [7]; 25 mg/kg CBX in combination with induction chemotherapy) of the same compound?
Answer: no statistically significant difference in survival

Question: And the CBX-treated mice survived (MLL-AF9 leukemia [7]; 50 mg/kg CBX alone)?
Answer: 20%

Question: And the survival (MLL-AF9 leukemia [7]; 50 mg/kg CBX alone)?
Answer: early mortality with no statistically significant difference

Question: And the “survival vs PBS and chemotherapy controls” value (MLL-AF9 leukemia [7]; 50 mg/kg CBX in combination with chemotherapy)?
Answer: significant increased survival

Question: And the “survival vs PBS controls” value (MLL-AF9 leukemia [7]; 75 mg/kg CBX alone)?
Answer: significant increased survival

Question: What about the CBX-treated mice survived (MLL-AF9 leukemia [7]; [11]) of the same compound?
Answer: 20%

Question: What about the survival (MLL-AF9 leukemia [7]; [11]) of the same compound?
Answer: early mortality with no statistically significant difference

Question: And the “adverse effect of prolonged administration” value (MLL-AF9 leukemia [7]; SC, daily, 14 days)?
Answer: lethal pseudo-hyperadlosteronism with no sign of leukemia

Question: And the “autopsy, signs of leukemia” value (MLL-AF9 leukemia [7]; chemotherapy plus 50 mg/kg CBX)?
Answer: no signs of leukemia

Question: What about the autopsy finding (MLL-AF9 leukemia [7]; mouse that died at day 28 after CBX treatment) of the same compound?
Answer: gastric edema

Question: What about the “adverse effect of chronic systemic exposure” value (MLL-AF9 leukemia [7]; mouse, in vivo) of the same compound?
Answer: acute lethal pseudo-hyperaldosteronism in some case

Question: What about the early mortality (MLL-AF9 leukemia [7]; mouse, in vivo) of the same compound?
Answer: early mortality due to acute lethal pseudo-hyperadlosteronism

Question: What about the “cause of early mortality” value (MLL-AF9 leukemia [7]; mouse, in vivo, sc) of the same compound?
Answer: most likely induced by acute pseudo-hyperaldosteronism, and not by leukemia

Question: And the survival (MLL-AF9 leukemia [7]; mouse, in vivo, sc, 50 mg/kg)?
Answer: prolonged survival

Question: And the survival (MLL-AF9 leukemia [7]; mouse, in vivo, sc, 75 mg/kg)?
Answer: prolonged survival

Question: And the “Mac1 (CD11b) expression” value [8]?
Answer: downregulated

Question: What about the “effect on malignant vs. normal immature stem and progenitor cells (CFU-C)” value ([9]; CBX at greater than or equal to 50 μM) of the same compound?
Answer: differential effect

Question: And the “effect on murine leukemic cancer stem cells (CFU-C)” value ([9]; increasing concentrations of carbenoxolone)?
Answer: eradicates murine leukemic cancer stem cells

Question: What about the “leukemia status 1 week after treatment (luciferase imaging, flow cytometry)” value (MLL-AF9 leukemia [10]; 25 mg/kg CBX 24 hours before and throughout 5-days induction chemotherapy) of the same compound?
Answer: entirely leukemia free

Question: And the survival (MLL-AF9 leukemia [10]; Carbenoxolone 20 mg/kg in combination with chemotherapy, from Day 27)?
Answer: prolonged survival

Question: And the survival (MLL-AF9 leukemia [10]; Carbenoxolone alone, 20 mg/kg 3 or 6 days from Day 27, or 10/20/30 mg/kg ascending from Day 68)?
Answer: prolonged survival

Question: And the survival (MLL-AF9 leukemia [10]; IP, 20 mg/kg for 6 days from day 27 (with chemo arm) or 10/20/30 mg/kg ascending from day 68)?
Answer: prolonged survival

Question: What about the survival (MLL-AF9 leukemia [10]; IP, 50 mg/kg 6 days beginning at day 27) of the same compound?
Answer: prolonged survival
